The values that follow come from patent publication EP4631938A1, “NITROGEN-CONTAINING HETEROCYCLE WITH SEROTONIN RECEPTOR-BINDING ACTIVITY AND CARBOCYCLIC DERIVATIVE” (Shionogi & Co., Ltd, priority 2022, dated 2024).

Structures are written as SMILES.

For experiment [1], the target named is T1, human recombinant 5-HT2A receptor (Homo sapiens, UniProt P28223).
T1 construct: expressed in transfected cells; host or cells: Jump-In HEK cells (membrane preparation)
Description: Test Example 1-2: 5-HT2A receptor binding inhibition test ([3H]-Ketanserin; non-specific ligand Ketanserin). Particulars: [3H]-Ketanserin; non-specific binding with 500 µmol/L Ketanserin; room temperature (25°C), 1.5 hours; read-out: h 5-HT2A Ki. Summed up: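 Ki values were derived from dose-response inhibition of [3H]-ketanserin binding; nonspecific binding was set with 500 µmol/L ketanserin, and Kd was set for each membrane lot from Scatchard saturation plots. Incubation lasted 1.5 h at room temperature (25 °C). Bound radioligand was harvested on Tris-HCl (pH 7.4)-presoaked filters and counted.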

The target in experiment [2] is T2, human recombinant 5-HT2C receptor (Homo sapiens, UniProt P28335).
T2 construct: expressed in transfected cells; host or cells: Jump-In HEK cells (membrane preparation)
T2 sequence (P28335 33-458): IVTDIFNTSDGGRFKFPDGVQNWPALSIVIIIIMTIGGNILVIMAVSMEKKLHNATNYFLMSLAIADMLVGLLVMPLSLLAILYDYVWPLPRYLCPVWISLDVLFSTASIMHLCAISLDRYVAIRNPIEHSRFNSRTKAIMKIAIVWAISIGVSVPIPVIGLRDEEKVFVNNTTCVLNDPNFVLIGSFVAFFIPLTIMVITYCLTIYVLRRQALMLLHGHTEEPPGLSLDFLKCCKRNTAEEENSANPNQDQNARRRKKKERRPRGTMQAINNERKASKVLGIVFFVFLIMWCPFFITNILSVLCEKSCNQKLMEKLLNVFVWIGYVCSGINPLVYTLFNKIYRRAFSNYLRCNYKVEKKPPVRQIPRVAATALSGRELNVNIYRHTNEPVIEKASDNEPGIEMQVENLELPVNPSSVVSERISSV
As to the kind of experiment: Test Example 2-2: 5-HT2C receptor binding inhibition test ([3H]-Mesulergine; non-specific ligand Ketanserin). Particulars: non-specific binding with 500 µmol/L Ketanserin, 37°C, 2 hours. The protocol:
The Kd value is calculated when the lot of the cell membrane is changed. 1 mmol/L non-specific binding calculating compound dissolved in DMSO or DMSO is previously dispensed to the microplate by 0.5 µL, and the cell membrane is diluted with an Assay buffer. The radioactive ligand solution is diluted step by step, and counts are checked with a liquid scintillator. The Assay buffer containing diluted cell membranes is dispensed by 50 µL/well into the microplate. The radioactive ligand solution is then dispensed by 50 µL/well into the microplate and the plate is sealed. The microplate is allowed to stand at 37°C for 2 hours. During this time, 50 mmol/L Tris-HCl (pH 7.4) is dispensed by 50 µL/well into the UniFilter plate and allowed to stand at 4°C for 1 hour or longer. Thereafter, filtration is performed with a Cell Harvester (PerkinElmer). The radioactive ligand solution is dispensed by 10 µL/well into empty wells of the UniFilter plate. After drying the UniFilter plate at room temperature, MicroScinti20 is dispensed by 50 µL/well into the UniFilter plate, and the plate is sealed. UniFilter plate is allowed to stand at room temperature overnight. The radioactivity of [^3H]-Mesulergine bound to the 5-HT2C receptor is measured using Microbeta2 (PerkinElmer) at a measurement time of 1 min/well. The Saturation curve is drawn from the measured value, and the Kd value is calculated from the slope of the Scatchard Plot.
A compound solution dissolved in DMSO is dispensed to a microplate by 0.5 µL, and a cell membrane and a hot ligand are each diluted with an Assay buffer. The Assay buffer containing diluted cell membrane is then dispensed by 50 µL/well into the microplate. The radioactive ligand solution is then dispensed by 50 µL/well into the microplate and the plate is sealed. The microplate is then allowed to stand at 37°C for 2 hours. During this time, 50 mmol/L Tris-HCl (pH 7.4) is dispensed by 50 µL/well into the UniFilter plate and allowed to stand at 4°C for 1 hour or longer. Thereafter, filtration is performed with a Cell Harvester (PerkinElmer). After drying the UniFilter plate at room temperature, MicroScinti20 is dispensed by 50 µL/well into the UniFilter plate, and the plate is sealed. UniFilter plate is allowed to stand at room temperature overnight. The radioactivity of [^3H]-Mesulergine bound to the 5-HT2C receptor is measured using Microbeta2 (PerkinElmer) at a measurement time of 1 min/well. Non-specific binding is calculated from the radioactivity of [^3H]-Mesulergine in the presence of 500 µmol/L Ketanserin of unlabeled ligand, and total binding is calculated from the radioactivity of [^3H]-Mesulergine in the absence of the compound of the present invention (Vehicle). Finally, the Ki value is calculated from the dose-response curve.
(The binding activity of the compound according to the present invention is calculated from the following binding inhibition rate (%).) Inhibition rate (%) = [1−(c−a)/(b−a)] × 100 [formula] • a; average cpm of non-specific binding • b; average cpm of total binding • c; cpm in the presence of the test compound
The compounds of the present invention were tested essentially as described above.

T1 sequence (P28223 whole entry): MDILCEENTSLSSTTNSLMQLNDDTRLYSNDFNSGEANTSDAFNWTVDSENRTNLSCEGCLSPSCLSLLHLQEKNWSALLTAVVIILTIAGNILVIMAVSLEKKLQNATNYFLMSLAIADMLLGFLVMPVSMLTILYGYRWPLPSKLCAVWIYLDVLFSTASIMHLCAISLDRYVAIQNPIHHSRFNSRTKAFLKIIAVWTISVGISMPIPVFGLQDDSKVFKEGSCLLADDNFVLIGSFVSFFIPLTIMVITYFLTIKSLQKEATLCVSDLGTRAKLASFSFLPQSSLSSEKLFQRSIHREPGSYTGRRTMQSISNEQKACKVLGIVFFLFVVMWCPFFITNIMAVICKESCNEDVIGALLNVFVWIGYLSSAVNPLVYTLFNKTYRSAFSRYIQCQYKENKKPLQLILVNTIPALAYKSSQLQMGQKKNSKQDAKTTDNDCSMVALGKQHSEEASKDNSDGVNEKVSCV

Turning to `Cc1n[nH]c(C)c1-c1cc(Nc2ncc(C(F)(F)F)cc2F)ccc1OCCO` [Compound I-023], the Ki – broadly, a dissociation constant, usually derived from enzyme kinetics or from competition with a known ligand – came out at 0.246 nM in experiment [1] and 3.62 nM in experiment [2].
The corresponding values for `Cc1ccncc1-c1cc(Nc2ncc(C(F)(F)F)cc2F)ccc1OCCO` [Compound I-024] are 0.607 nM and 7.35 nM.
The corresponding values for `Cc1ccc(-c2cc(Nc3ncc(C(F)(F)F)cc3F)ccc2OCCO)c(C)n1` [Compound I-025] are 0.25 nM and 3.7 nM.
The corresponding values for `OCCOc1ccc(Nc2ncc(C(F)(F)F)cc2F)cc1-c1ccnc(F)c1Cl` [Compound I-026] are 0.894 nM and 7.89 nM.
`Cn1cnc(Br)c1-c1cc(Nc2ncc(C(F)(F)F)cc2F)ccc1OCCO` [Compound I-027]: the Ki in experiment [1] came out at 0.292 nM; in experiment [2] it was 0.266 nM.
The corresponding values for `Cc1cnc(Nc2ccc(OCCO)c(-c3c(Br)cnn3C)c2)s1` [Compound I-028] are 0.209 nM and 4.96 nM.
The corresponding values for `Cn1ncc(Br)c1-c1cc(Nc2nc3ccccc3s2)ccc1OCCO` [Compound I-029] are 0.286 nM and 0.636 nM.
The corresponding values for `Cc1cncc(C)c1-c1cc(Nc2ncc(C(F)(F)F)cc2F)ccc1OCCO` [Compound I-030] are 0.31 nM and 0.881 nM.
Take `Cn1cnc(Br)c1-c1cc(Nc2ncc(F)cc2F)ccc1OCCO` [Compound I-032]: the Ki in experiment [1] was found to be 0.734 nM; in experiment [2], 8.32 nM.
The corresponding values for `Cc1nnn(C)c1-c1cc(Nc2ncc(C(F)(F)F)cc2F)ccc1OCCO` [Compound I-033] are 0.376 nM and 3.43 nM.
Turning to `Cc1cccc(C)c1-c1cc(Nc2ncc(C(F)(F)F)cc2F)ccc1OCCO` [Compound I-034], the results for the Ki in experiment [1] and in experiment [2] were 0.77 nM and 3.57 nM, respectively.
The corresponding values for `Cc1cnn(C)c1-c1cc(Nc2ncc(C(F)(F)F)cc2F)c(Oc2ccn(C)n2)cc1OCCO` [Compound I-035] are 2.54 nM and 2.35 nM.
The corresponding values for `Cn1ncc(Br)c1-c1cc(Nc2nc(C(F)(F)F)cs2)ccc1OCCO` [Compound I-036] are 0.344 nM and 1.92 nM.
The corresponding values for `Cn1ncc(Br)c1-c1cc(Nc2ncc(C#N)s2)ccc1OCCO` [Compound I-037] are 0.289 nM and 1.4 nM.
For the compound `Cn1ncc(Br)c1-c1cc(Nc2ncc(C3CC3)s2)ccc1OCCO` [Compound I-038], the Ki in experiment [1] came out at 0.215 nM; in experiment [2], 0.666 nM.
Turning to `Cn1ncc(Br)c1-c1cc(Nc2ncc(-c3ccccc3)s2)ccc1OCCO` [Compound I-039], the Ki in experiment [1] is 0.319 nM; in experiment [2], 0.245 nM.
The corresponding values for `Cn1ncc(Br)c1-c1cc(Nc2ncc(Cl)s2)ccc1OCCO` [Compound I-040] are 0.175 nM and 1.16 nM.
The corresponding values for `Cn1ncc(Br)c1-c1cc(Nc2nc3ccccc3o2)ccc1OCCO` [Compound I-041] are 0.155 nM and 8.83 nM.
The corresponding values for `Cn1ncc(Br)c1-c1cc(Nc2nc3ccccc3n2C)ccc1OCCO` [Compound I-042] are 0.194 nM and 8.35 nM.
As to `Cn1ncc(Br)c1-c1cc(Nc2ncc(Br)cc2F)ccc1OCCO` [Compound I-043], the figures for the Ki in experiment [1] and in experiment [2] were 0.188 nM and 0.165 nM, respectively.
The corresponding values for `Cn1ncc(Br)c1-c1cc(Nc2ncc(C#N)cc2F)ccc1OCCO` [Compound I-044] are 0.626 nM and 15.1 nM.
The corresponding values for `Cn1ncc(Br)c1-c1cc(Nc2ncccc2F)ccc1OCCO` [Compound I-045] are 0.235 nM and 3.77 nM.
The corresponding values for `COC(=O)c1cnc(Nc2ccc(OCCO)c(-c3c(Br)cnn3C)c2)c(F)c1` [Compound I-046] are 0.318 nM and 1.33 nM.
As to `Cn1ncc(Br)c1-c1cc(Nc2cc(C(F)(F)F)ccn2)ccc1OCCO` [Compound I-047], the Ki in experiment [1] was found to be 0.207 nM; in experiment [2] it was 4.26 nM.
The corresponding values for `Cn1ncc(Br)c1-c1cc(Nc2ccc(C3CC3)cn2)ccc1OCCO` [Compound I-048] are 0.163 nM and 0.313 nM.
The corresponding values for `Cc1cnc(Nc2ccc(OCCO)c(-c3c(Br)cnn3C)c2)c(F)c1` [Compound I-049] are 0.168 nM and 0.641 nM.
The corresponding values for `Cc1ncnc(C)c1-c1cc(Nc2ncc(C(F)(F)F)cc2F)ccc1OCCO` [Compound I-050] are 0.395 nM and 1.69 nM.
As for `Cn1ncc(C#N)c1-c1cc(Nc2ncc(Cl)cc2F)ccc1OCCO` [Compound I-051], the Ki in experiment [1] amounted to 0.318 nM; in experiment [2] it was 2.6 nM.
The corresponding values for `Cn1ncc(C(F)(F)F)c1-c1cc(Nc2ncc(C(F)(F)F)cc2F)ccc1OCCO` [Compound I-052] are 0.389 nM and 0.368 nM.
The corresponding values for `C=Cc1cnn(C)c1-c1cc(Nc2ncc(C(F)(F)F)cc2F)ccc1OCCO` [Compound I-053] are 0.291 nM and 1.25 nM.
The corresponding values for `CCc1cnn(C)c1-c1cc(Nc2ncc(C(F)(F)F)cc2F)ccc1OCCO` [Compound I-055] are 0.396 nM and 0.745 nM.
Take `Cc1ncnc(C)c1-c1cc(Nc2ncc(Cl)cc2F)ccc1OCCO` [Compound I-057]: the Ki was 0.386 nM in experiment [1] and 5.3 nM in experiment [2].
The corresponding values for `Cn1nccc1-c1cc(Nc2ncc(C(F)(F)F)cc2F)ncc1OCCO` [Compound I-059] are 0.45 nM and 30 nM.
The corresponding values for `Cn1ncc(Br)c1-c1cc(Nc2ccc(OC(F)F)cn2)ccc1OCCO` [Compound I-060] are 0.158 nM and 0.184 nM.
The corresponding values for `Cn1ncc(Br)c1-c1cc(Nc2ccc(OC(F)(F)F)cc2)ccc1OCCO` [Compound I-061] are 0.254 nM and 1.31 nM.
Consider `CCn1ncc(Br)c1-c1cc(Nc2ncc(C(F)(F)F)cc2F)ccc1OCCO` [Compound I-066], for which the Ki in experiment [1] is 0.222 nM; in experiment [2], 0.17 nM.
The corresponding values for `OCCOc1ccc(Nc2ncc(C(F)(F)F)cc2F)cc1-c1c(Br)cnn1C1CC1` [Compound I-067] are 0.403 nM and 0.196 nM.
`CCn1ncc(C)c1-c1cc(Nc2ncc(C(F)(F)F)cc2F)ccc1OCCO` [Compound I-068]: the Ki is 0.29 nM in experiment [1] and 1.15 nM in experiment [2].
The corresponding values for `Cn1ncc(Br)c1-c1cc(Nc2nc3cc(Cl)ccc3s2)ccc1OCCO` [Compound I-069] are 0.373 nM and 0.36 nM.
The corresponding values for `Cn1ncc(Br)c1-c1cc(Nc2nc3ccc(F)cc3s2)ccc1OCCO` [Compound I-070] are 0.302 nM and 0.213 nM.
Take `Cn1ncc(Br)c1-c1cc(Nc2nc3c(Cl)cccc3s2)ccc1OCCO` [Compound I-071]: the Ki in experiment [1] turned out to be 0.379 nM; in experiment [2], 1.96 nM.
For `Cn1ncc(C#N)c1-c1cc(Nc2ncc(C(F)(F)F)cc2F)ncc1OCCO` [Compound I-072], the Ki turned out to be 0.412 nM in experiment [1] and 4.64 nM in experiment [2].
